Results from PubChem BioAssay (NCI).
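These data come from cells grown in 96-well plates and exposed to compound for 48 hours at five concentrations. TGI denotes the concentration required for complete inhibition of growth.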

Key:
Test in all cases: inhibition of tumour cell growth, NCI panel, 48 h
HCT-116 colon = test system: HCT-116 colon
786-0 renal = test system: 786-0 renal
NCI/ADR-RES ovarian = test system: NCI/ADR-RES ovarian
SW-620 colon = test system: SW-620 colon
HOP-62 NSCLC = test system: HOP-62 NSCLC
HL-60(TB) leukemia = test system: HL-60(TB) leukemia
SK-MEL-2 melanoma = test system: SK-MEL-2 melanoma
OVCAR-8 ovarian = test system: OVCAR-8 ovarian
HCT-15 colon = test system: HCT-15 colon
MOLT-4 leukemia = test system: MOLT-4 leukemia
HCC-2998 colon = test system: HCC-2998 colon
DU-145 prostate = test system: DU-145 prostate
LOX IMVI melanoma = test system: LOX IMVI melanoma
HOP-92 NSCLC = test system: HOP-92 NSCLC
UACC-257 melanoma = test system: UACC-257 melanoma
SK-MEL-5 melanoma = test system: SK-MEL-5 melanoma
KM12 colon = test system: KM12 colon
OVCAR-4 ovarian = test system: OVCAR-4 ovarian
OVCAR-5 ovarian = test system: OVCAR-5 ovarian
T-47D breast = test system: T-47D breast
IGROV1 ovarian = test system: IGROV1 ovarian
EKVX NSCLC = test system: EKVX NSCLC
ACHN renal = test system: ACHN renal
SK-OV-3 ovarian = test system: SK-OV-3 ovarian
MDA-N = test system: MDA-N
CCRF-CEM leukemia = test system: CCRF-CEM leukemia
HT29 colon = test system: HT29 colon
OVCAR-3 ovarian = test system: OVCAR-3 ovarian
SK-MEL-28 melanoma = test system: SK-MEL-28 melanoma
U251 CNS = test system: U251 CNS
CAKI-1 renal = test system: CAKI-1 renal
BT-549 breast = test system: BT-549 breast
A549 NSCLC = test system: A549 NSCLC
SF-295 CNS = test system: SF-295 CNS
A498 renal = test system: A498 renal
UACC-62 melanoma = test system: UACC-62 melanoma
SR leukemia = test system: SR leukemia
K-562 leukemia = test system: K-562 leukemia
MDA-MB-435 = test system: MDA-MB-435
SNB-19 CNS = test system: SNB-19 CNS
M14 melanoma = test system: M14 melanoma
UO-31 renal = test system: UO-31 renal
TK-10 renal = test system: TK-10 renal
MDA-MB-231 breast = test system: MDA-MB-231 breast
SN12C renal = test system: SN12C renal
RPMI-8226 leukemia = test system: RPMI-8226 leukemia
MCF7 breast = test system: MCF7 breast
NCI-H23 lung = test system: NCI-H23 lung
PC-3 prostate = test system: PC-3 prostate
COLO 205 colon = test system: COLO 205 colon
SF-539 CNS = test system: SF-539 CNS
NCI-H522 lung = test system: NCI-H522 lung
NCI-H460 lung = test system: NCI-H460 lung
SF-268 CNS = test system: SF-268 CNS
RXF 393 renal = test system: RXF 393 renal
SNB-75 CNS = test system: SNB-75 CNS
MALME-3M melanoma = test system: MALME-3M melanoma
NCI-H226 lung = test system: NCI-H226 lung
HS 578T breast = test system: HS 578T breast

Measured: TGI

COc1ccc(CCN2C(=O)CC34C=CC(CC3C2=O)O4)cc1OC (stereo not given)
not listed: NCI-H522 lung | NCI-H460 lung | SF-268 CNS | RXF 393 renal | SNB-75 CNS | MALME-3M melanoma | NCI-H226 lung | HS 578T breast
> 100 µM: all other assays above

COCOc1cc(OC)ccc1C/C(=N/O)C(=O)OC
74.4 µM: SNB-75 CNS
not listed: HOP-92 NSCLC | A498 renal | SR leukemia | RPMI-8226 leukemia
> 100 µM: all other assays above

C[C@H]1O[C@@H](C(C)(C)C)OC(=O)[C@@H]1C(OC(=O)c1ccccc1)c1cccc2ccccc12 (stereo not given in full)
not listed: HL-60(TB) leukemia | DU-145 prostate | HOP-92 NSCLC | A498 renal
> 100 µM: all other assays above

CCOC(=O)C1(C(=O)OCC)C=C(c2ccccc2)N(C2OC(COC(C)=O)C(OC(C)=O)C(OC(C)=O)C2OC(C)=O)C1=S (stereo not given)
44.3 µM: RPMI-8226 leukemia
81.5 µM: HL-60(TB) leukemia
not listed: ACHN renal | K-562 leukemia | TK-10 renal | PC-3 prostate | SNB-75 CNS
> 100 µM: all other assays above
